Experimental data as given in US20250276107A1, “HYDROGEL SYSTEMS AND METHODS FOR TREATING FISTULA AND OTHER INDICATIONS” (Terasaki Institute for Biomedical Innovation, priority 2024, published 2025).

Tested on: red blood cells (RBCs)
Test: Hemolysis test with diluted whole human blood
Assay type: cell-based
Settings: 2 h, physiological temperature
Description: In the development of bioadhesives, it is important to assess hemocompatibility to evaluate whether the materials damage the blood cells. For this purpose, a standard hemolysis test was performed by exposing crosslinked hydrogels to diluted sodium citrate-treated whole human blood for 2 h at physiological temperature. The presence of a toxic effect was assessed visually by observing the appearance of a red-colored supernatant after centrifugation, indicating the release of hemoglobin from ruptured red blood cells (RBCs). […] After incubation with hydrogels, intact RBCs were efficiently sedimented through centrifugation, similar to the saline negative control. […] The disruption of RBCs was further assessed through colorimetric analysis, with the calculated percent hemolysis induced by the hydrogels presented in FIG. 6A(II). The hemolysis level of the hydrogels at all tested PDA concentrations remained below the acceptable limit (≤5%).

## Triton X-100
  supernatant colour after centrifugation (visual hemolysis): reddish supernatant
